The source of these data is US8513423B2 (Janssen Pharmaceutica, NV, priority 2010, dated 2013).

Substitutions are numbered along the chain they refer to. Where two headings read alike, the source gives them in different places.

Test [1] has as its target T1, purified wild type MGL (wt-MGLL 6H-11-313) (Homo sapiens, UniProt Q99685).
T1 construct: purified wild type MGL (wt-MGLL 6H-11-313)
T1 sequence (Q99685 1-303): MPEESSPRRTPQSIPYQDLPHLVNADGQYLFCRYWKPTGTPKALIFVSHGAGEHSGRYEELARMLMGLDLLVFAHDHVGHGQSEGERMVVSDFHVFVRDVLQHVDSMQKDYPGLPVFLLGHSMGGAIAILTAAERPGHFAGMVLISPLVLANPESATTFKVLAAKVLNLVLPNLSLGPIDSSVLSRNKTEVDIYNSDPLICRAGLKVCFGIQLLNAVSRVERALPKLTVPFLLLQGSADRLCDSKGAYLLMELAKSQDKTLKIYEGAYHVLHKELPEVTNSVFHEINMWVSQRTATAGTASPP
Briefly: MGL enzyme activity assay (4MU-B cleavage), wild type MGL. The note with it: 10 μM 4MU-B, 5 nM enzyme, 37° C., read-out: MGL wild type inh IC50. It counts as biochemical. An outline of the steps: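 Enzyme (5 nM final) cleaved 4MU-B (10 μM final) in 20 mM PIPES pH 7.0 with 150 mM NaCl and 0.001% Tween 20. Compounds were tested at 17 to 0.0003 μM final. Fluorescence (ex 335/em 440 nm) was monitored at 37° C for 5 min, and IC50 was fitted from fractional activity versus inhibitor concentration.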

Test [2] deals with T2, purified mutant MGL (mut-MGLL 11-313 L179S L186S) (Homo sapiens, UniProt Q99685, L169S/L176S).
T2 construct: purified mutant MGL (mut-MGLL 11-313 L179S L186S)
T2 sequence (Q99685 1-303 L169S/L176S): T1 sequence (Q99685 1-303) with L169S, L176S
Briefly: MGL enzyme activity assay (4MU-B cleavage), mutant MGL. The settings on record: 10 μM 4MU-B, 5 nM enzyme, 37° C., read-out: MGL mutant inh IC50. It counts as biochemical. The method, then:
All rate-based assays were performed in black 384-well polypropylene PCR microplates (Abgene) in a total volume of 30 μL. Substrate 4-methylumbelliferyl butyrate (4MU-B; Sigma) and either purified mutant MGL (mut-MGLL 11-313 L179S L186S) or purified wild type MGL (wt-MGLL 6H-11-313) were diluted separately into 20 mM PIPES buffer (pH=7.0), containing 150 mM NaCl and 0.001% Tween 20. Compounds of Formula (I) were pre-dispensed (50 nL) into the assay plate using a Cartesian Hummingbird prior to adding 4MU-B (25 μL of 1.2× solution to a final concentration of 10 μM) followed by enzyme (5 μL of a 6× solution to a final concentration of 5 nM) to initiate the reaction. Final compound concentrations ranged from 17 to 0.0003 μM. The fluorescence change due to 4MU-B cleavage was monitored with excitation and emission wavelengths of 335 and 440 nm, respectively, and a bandwidth of 10 nm (Safire^2, Tecan) at 37° C. for 5 min.
The IC50 values for compounds of Formula (I) were determined using Excel from a fit of the equation to the concentration-response plot of the fractional activity as a function of inhibitor concentration.

In test [3] the target is T3, MGL (Rattus norvegicus, UniProt Q8R431).
T3 construct: one g rat brain was homogenized; from tissue; host or cells: rat brain homogenate
T3 sequence (Q8R431 1-303): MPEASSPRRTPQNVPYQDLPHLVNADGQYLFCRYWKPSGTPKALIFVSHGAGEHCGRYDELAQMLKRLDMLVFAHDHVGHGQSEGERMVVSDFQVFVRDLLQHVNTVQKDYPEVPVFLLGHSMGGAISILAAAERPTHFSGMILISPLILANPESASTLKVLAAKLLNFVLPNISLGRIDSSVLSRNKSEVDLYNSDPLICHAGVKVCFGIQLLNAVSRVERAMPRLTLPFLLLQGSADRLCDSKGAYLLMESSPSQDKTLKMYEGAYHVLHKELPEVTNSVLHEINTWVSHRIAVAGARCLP
Briefly: 2-AG accumulation assay in rat brain homogenate. The format is biochemical. The note with it: compound @1 μM, read-out: Rat Brain 2AG % VehCntrl (%) @1 μM. Put shortly: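 Inhibition of rat MGL was assessed by measuring 2-AG build-up in brain homogenate. After a 15-min preincubation at 37° C., 10 mM CaCl2 was added and the 5 mL reaction ran 15 min more at 37° C. It was quenched with 6 mL 2:1 chloroform/methanol, extracted 2-AG was measured by HPLC/MS, and accumulation with compound was expressed as a percentage of vehicle.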

Test [4] addresses T4, mutant MGL (Homo sapiens, UniProt Q99685, L169S/L176S).
T4 construct: purified mutant MGL (mut-MGLL 11-313 L179S L186S)
T4 sequence (Q99685 1-303 L169S/L176S): T1 sequence (Q99685 1-303) with L169S, L176S
The test can be described thus: MGL ThermoFluor assay - mutant. The format is binding. An outline of the steps:
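Thermal shift binding with 0.07 mg/ml L169S/L176S MGL, 100 μM 1,8-ANS, 200 mM NaCl, 0.001% Tween-20, 50 mM PIPES pH 7.0. Heated 40–90 °C at 1 °C/min, fluorescence (em 500 nm) tracked to give Tm; Kd fitted from 11-point concentration–Tm response, qKd when stocks quantified by qNMR.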
For orientation: Differential scanning fluorimetry follows unfolding on heating by fluorescence.

[5] abbreviates: 0.07 mg/ml mutant MGL, pH=7.0, read-out: MGL mutant ThermoFluor Kd.
[6] abbreviates: compound concentration measured by qNMR, read-out: MGL mutant ThermoFluor qKd (using qNMR conc.).

As for `O=C(c1ccc(-c2ccccc2)cc1)N1CC(C2CCN(C(=O)c3nccs3)CC2)C1` [Cpd 2, 4-[1-(Biphenyl-4-ylcarbonyl)azetidin-3-yl]-1-(1,3-thiazol-2-ylcarbonyl)piperidine], the IC50 in test [1] and in test [2] was below 5 nM in each case. The 2-AG accumulation, percent of vehicle control at 1 µM in test [3] amounted to 329%. The Kd in test [4] (setting [5]) was found to be 8.9 nM.
With `O=C(c1ccc(-c2ccccc2)cc1)N1CC(C2CCN(C(=O)c3cscn3)CC2)C1` [Cpd 1, 4-[1-(Biphenyl-4-ylcarbonyl)azetidin-3-yl]-1-(1,3-thiazol-4-ylcarbonyl)piperidine], the IC50 in test [1] was 258 nM; in test [2] it was 79 nM. Moreover, the 2-AG accumulation, percent of vehicle control at 1 µM in test [3] is 109%. Also, the Kd in test [4] (setting [5]) turned out to be 100 nM.
As for `O=C(c1ccc(Cc2ccc(C(F)(F)F)cc2)cc1)N1CCC(C2CN(C(=O)c3ccc[nH]3)C2)CC1` [Cpd 65, 4-[1-(1H-Pyrrol-2-ylcarbonyl)azetidin-3-yl]-1-({4-[4-(trifluoromethyl)benzyl]phenyl}carbonyl)piperidine], in test [1], the IC50 is below 5 nM. Further, the 2-AG accumulation, percent of vehicle control at 1 µM in test [3] was found to be 241%. Also, the Kd in test [4] (setting [6]) was determined as 40.4 nM.
For `O=C(c1ccc2c(ccn2-c2ccc(C(F)(F)F)cc2)c1)N1CCC(C2CN(C(=O)c3ccc[nH]3)C2)CC1` [Cpd 77, 5-({4-[1-(1H-Pyrrol-2-ylcarbonyl)azetidin-3-yl]piperidin-1-yl}carbonyl)-1-[4-(trifluoromethyl)phenyl]-1H-indole], the IC50 in test [1] was below 5 nM. Besides, in test [3], the 2-AG accumulation, percent of vehicle control at 1 µM is 714%. For the same molecule, the Kd in test [4] (setting [6]) was 5 nM.
As for `O=C(c1ccc[nH]1)N1CCC(C2CN(C(=O)c3sc4cc(C(F)(F)F)ccc4c3Cl)C2)CC1` [Cpd 41, 4-(1-{[3-Chloro-6-(trifluoromethyl)-1-benzothiophen-2-yl]carbonyl}azetidin-3-yl)-1-(1H-pyrrol-2-ylcarbonyl)piperidine], in test [1], the IC50 is below 5 nM. For the same molecule, the 2-AG accumulation, percent of vehicle control at 1 µM in test [3] was 272%. In addition, the Kd in test [4] (setting [5]) is 4.1 nM; in test [4] (setting [6]), 3.1 nM.
`O=C(c1ccc(-c2ccc(C(F)(F)F)s2)cc1)N1CCC(C2CN(C(=O)c3cscn3)C2)CC1` [Cpd 55, 4-[1-(1,3-Thiazol-4-ylcarbonyl)azetidin-3-yl]-1-({4-[5-(trifluoromethyl)thiophen-2-yl]phenyl}carbonyl)piperidine]: the IC50 in test [1] amounted to 13 nM. Further, in test [3], the 2-AG accumulation, percent of vehicle control at 1 µM is 733%. Also, the Kd in test [4] (setting [6]) worked out at 2 nM.
As for `O=C(c1ccc[nH]1)N1CC(C2CCN(C(=O)c3ccc(-c4ccccc4)cc3F)CC2)C1` [Cpd 47, 1-[(3-Fluorobiphenyl-4-yl)carbonyl]-4-[1-(1H-pyrrol-2-ylcarbonyl)azetidin-3-yl]piperidine], the IC50 in test [1] came to 37.9 nM. Further, the 2-AG accumulation, percent of vehicle control at 1 µM in test [3] turned out to be 153%. Besides, the Kd in test [4] (setting [5]) is 76.7 nM; in test [4] (setting [6]) it was 33.3 nM.
Turning to `O=C(c1ccc(-c2cccc(C(F)(F)F)c2)cc1)N1CC(C2CCN(C(=O)c3cscn3)CC2)C1` [Cpd 10, 1-(1,3-Thiazol-4-ylcarbonyl)-4-(1-{[3′-(trifluoromethyl)biphenyl-4-yl]carbonyl}azetidin-3-yl)piperidine], the concentration for half-maximal inhibition (IC50) in test [1] came to 15.5 nM. Moreover, the 2-AG accumulation, percent of vehicle control at 1 µM in test [3] was determined as 194%. For the same molecule, the Kd in test [4] (setting [5]) is 11 nM.
As for `O=C(c1ccc2c(ccn2-c2ccc(F)cc2)c1)N1CCC(C2CN(C(=O)c3ccc[nH]3)C2)CC1` [Cpd 74, 1-(4-Fluorophenyl)-5-({4-[1-(1H-pyrrol-2-ylcarbonyl)azetidin-3-yl]piperidin-1-yl}carbonyl)-1H-indole], the IC50 in test [1] stood at 13.8 nM. For the same molecule, the 2-AG accumulation, percent of vehicle control at 1 µM in test [3] amounted to 788%. In test [4] (setting [6]), the Kd turned out to be 8 nM.
For `O=C(c1ccc2c(ccn2-c2ccc(C(F)(F)F)cc2)c1)N1CC(C2CCN(C(=O)c3ccc[nH]3)CC2)C1` [Cpd 43, 5-({3-[1-(1H-Pyrrol-2-ylcarbonyl)piperidin-4-yl]azetidin-1-yl}carbonyl)-1-[4-(trifluoromethyl)phenyl]-1H-indole], in that order: below 5 nM, 611% and 26.4 nM.
As to `O=C(c1ccc2c(ccn2-c2ccc(C(F)(F)F)cc2)c1)N1CC(C2CCN(C(=O)c3nccs3)CC2)C1` [Cpd 31, 5-({3-[1-(1,3-Thiazol-2-ylcarbonyl)piperidin-4-yl]azetidin-1-yl}carbonyl)-1-[4-(trifluoromethyl)phenyl]-1H-indole], in test [1], the IC50 was below 5 nM. Further, the 2-AG accumulation, percent of vehicle control at 1 µM in test [3] is 779%. The Kd in test [4] (setting [5]) turned out to be 2.6 nM.
Consider `O=C(c1cscn1)N1CCC(C2CN(C(=O)c3sc4cc(C(F)(F)F)ccc4c3Cl)C2)CC1` [Cpd 35, 4-(1-{[3-Chloro-6-(trifluoromethyl)-1-benzothiophen-2-yl]carbonyl}azetidin-3-yl)-1-(1,3-thiazol-4-ylcarbonyl)piperidine], for which the IC50 in test [1] was below 5 nM. For the same molecule, the 2-AG accumulation, percent of vehicle control at 1 µM in test [3] was 724%. In addition, the results for the Kd in test [4] (setting [5]) and in test [4] (setting [6]) were 2.5 nM and 5.7 nM, respectively.
With `O=C(c1cccc(-c2cccc(F)c2)c1)N1CCC(C2CN(C(=O)c3cscn3)C2)CC1` [Cpd 52, 1-[(3′-Fluorobiphenyl-3-yl)carbonyl]-4-[1-(1,3-thiazol-4-ylcarbonyl)azetidin-3-yl]piperidine], the IC50 in test [1] amounted to 71.5 nM. Also, the 2-AG accumulation, percent of vehicle control at 1 µM in test [3] is 193%. The Kd in test [4] (setting [5]) was 30.4 nM; in test [4] (setting [6]), 32.2 nM.
`O=C(c1ccc(Cc2cccc(C(F)(F)F)c2)cc1)N1CCC(C2CN(C(=O)c3nccs3)C2)CC1` [Cpd 57, 4-[1-(1,3-Thiazol-2-ylcarbonyl)azetidin-3-yl]-1-({4-[3-(trifluoromethyl)benzyl]phenyl}carbonyl)piperidine]: in test [1], the IC50 came to 17 nM. In addition, in test [3], the 2-AG accumulation, percent of vehicle control at 1 µM is 869%. In test [4] (setting [6]), the Kd was determined as 5.9 nM.
As to `O=C(c1ccc(-c2ccc(C(F)(F)F)s2)cc1)N1CCC(C2CN(C(=O)c3ccc[nH]3)C2)CC1` [Cpd 56, 4-[1-(1H-Pyrrol-2-ylcarbonyl)azetidin-3-yl]-1-({4-[5-(trifluoromethyl)thiophen-2-yl]phenyl}carbonyl)piperidine], the IC50 in test [1] was below 5 nM. Also, the 2-AG accumulation, percent of vehicle control at 1 µM in test [3] is 285%. For the same molecule, the figures for the Kd in test [4] (setting [5]) and in test [4] (setting [6]) were 5.5 nM and 3.3 nM, respectively.

Broadly, the IC50 is the concentration that inhibits the measured activity by half.
